Data taken from paper PMC7271024, “N1-Benzofused Modification of Fluoroquinolones Reduces Activity Against Gram-Negative Bacteria” (ACS Omega, 2020).
≈ marks a conversion by molar mass, not a printed value.

What was measured:
[1] = tested on: K. pneumoniae M6; assay: MIC, microdilution broth method; assay type: cell-based, Klebsiella pneumoniae; details: for potentiation of MIC by PMBN: MIC –PMBN vs +PMBN; for MIC: Klebsiella pneumoniae, ciprofloxacin-sensitive strain (S)
[2] = tested on: P. aeruginosa NCTC 13437; assay: MIC, microdilution broth method; assay type: cell-based, Pseudomonas aeruginosa; details: Pseudomonas aeruginosa
Procedure: (§1) The antibacterial activities of the synthesized fluoroquinolones were evaluated against a panel of Gram-negative pathogens including K. pneumoniae (NCTC 13368, M6), Acinetobacter baumannii (AYE, ATCC 17978), Pseudomonas aeruginosa (PAO1, NCTC 13437), and Escherichia coli (NCTC 12923, LEC001). The ability of molecules to permeate the Gram-negative outer membrane was investigated by adding membrane permeabilizer polymyxin B nonapeptide (PMBN) at sub-inhibitory concentrations (Table 2). Phenylalanine–arginine β-naphthylamide (PAβN) was used to investigate efflux of compounds by resistance–nodulation–division (RND)-family efflux pumps (Table 3).
(§2) Minimal inhibitory concentrations (MICs) were determined using the microdilution broth method. Briefly, compounds were added to the first two columns of a 96-well plate and diluted two-fold down the plate in tryptic soy broth. Overnight cultures of bacteria were then adjusted to a concentration of 1 × 10^6 CFU/mL and added to each well for a final concentration of 5 × 10^5 CFU/mL.

[3] = tested on: A. baumannii ATCC 17978; assay: MIC, microdilution broth method; assay type: cell-based, Acinetobacter baumannii; details: for MIC: Acinetobacter baumannii, ciprofloxacin-sensitive strain (S); for potentiation of MIC by PMBN: MIC –PMBN vs +PMBN
[4] = tested on: E. coli NCTC 12923; assay: MIC, microdilution broth method; assay type: cell-based, Escherichia coli; details: for MIC: Escherichia coli, ciprofloxacin-sensitive strain (S)
[5] = tested on: A. baumannii AYE; assay: MIC, microdilution broth method; assay type: cell-based, Acinetobacter baumannii; details: for MIC: Acinetobacter baumannii
Procedure: as §1, §2

[6] = tested on: E. coli LEC001; assay: MIC, microdilution broth method; assay type: cell-based, Escherichia coli; details: for MIC: Escherichia coli
Procedure: as §1, §2

[7] = tested on: P. aeruginosa PAO1; assay: MIC, microdilution broth method; assay type: cell-based, Pseudomonas aeruginosa; details: for potentiation of MIC by PMBN: MIC –PMBN vs +PMBN; for MIC: Pseudomonas aeruginosa, ciprofloxacin-sensitive strain (S)
[8] = tested on: K. pneumoniae NCTC 13368; assay: MIC, microdilution broth method; assay type: cell-based, Klebsiella pneumoniae; details: for MIC: Klebsiella pneumoniae, ciprofloxacin-resistant strain (R)
Procedure: as §1, §2

[9] = tested on: panel of Gram-negative pathogens; assay: MIC panel, statements across strains; assay type: cell-based, K. pneumoniae, A. baumannii, P. aeruginosa, E. coli; details: versus ciprofloxacin
Procedure: as §1, §2

[10] = NCTC13437, +PMBN (30 μg/mL), ciprofloxacin-resistant strain (R)
[11] = NCTC13437, –PMBN, ciprofloxacin-resistant strain (R)
[12] = PAβN, text names A. baumannii only
[13] = +PMBN (30 μg/mL), ciprofloxacin-resistant strain (R)
[14] = –PMBN, ciprofloxacin-resistant strain (R)
[15] = LEC001, +PMBN (30 μg/mL), ciprofloxacin-resistant strain (R)
[16] = LEC001, –PMBN, ciprofloxacin-resistant strain (R)

Row | potentiation of MIC by PMBN [1] [fold] | MIC [2, 10] [µg/mL] | MIC [2, 11] [µg/mL] | MIC ([3]; ATCC17978, +PMBN (30 μg/mL)) [µg/mL] | MIC ([3]; ATCC17978, –PMBN) [µg/mL] | potentiation of MIC by PMBN [3] | MIC ([4]; NCTC12923, +PMBN (30 μg/mL)) [µg/mL] | MIC ([4]; NCTC12923, –PMBN) [µg/mL] | MIC [5, 13] [µg/mL] | MIC [5, 14] [µg/mL] | MIC [6, 15] [µg/mL] | MIC [6, 16] [µg/mL] | potentiation of MIC by PMBN [7] | MIC ([1]; M6, +PMBN (30 μg/mL)) [µg/mL] | MIC ([1]; M6, –PMBN) [µg/mL] | MIC ([7]; PAO1, +PMBN (30 μg/mL)) [µg/mL] | MIC ([7]; PAO1, –PMBN) [µg/mL] | MIC ([8]; NCTC13368, +PMBN (30 μg/mL)) [µg/mL] | MIC ([8]; NCTC13368, –PMBN) [µg/mL] | Compound | other results
1 | 1 | 16 (≈ 48.3 µM) | > 32 | 0.5 (≈ 1.51 µM) | 0.5 (≈ 1.51 µM) | 1–2 fold | 0.03 to 0.06 (≈ 0.0905 to 0.181 µM) | ≤ 0.03 | > 32 | > 32 | 32 (≈ 96.6 µM) | 16 (≈ 48.3 µM) | 4–16 fold | – | – | – | – | – | – | O=C(O)c1cn(C2CC2)c2cc(N3CCNCC3)c(F)cc2c1=O [Compound 6a, ciprofloxacin, reference compound] | effect of PAβN on MIC ([1]; RND-family efflux inhibitor PAβN): not evident; MIC ([2]; NCTC13437, +PAβN (25 μg/mL), Table 3, strain R): 16 µg/mL (≈ 48.3 µM); MIC ([2]; NCTC13437, –PAβN, Table 3, strain R): 32 µg/mL (≈ 96.6 µM); effect of PAβN on MIC [3, 12]: Neither ciprofloxacin nor compound 6e showed any difference in MIC; effect of PAβN on MIC ([4]; PAβN, text names E. coli only): No effect; MIC ([5]; +PAβN (25 μg/mL), Table 3, strain R): > 32 µg/mL; MIC ([5]; –PAβN, Table 3, strain R): 32 µg/mL (≈ 96.6 µM); effect of PAβN on MIC [5, 12]: Neither ciprofloxacin nor compound 6e showed any difference in MIC; MIC ([6]; LEC001, +PAβN (25 μg/mL), Table 3, strain R): 32 µg/mL (≈ 96.6 µM); MIC ([6]; LEC001, –PAβN, Table 3, strain R): 16 µg/mL (≈ 48.3 µM); effect of PAβN on MIC ([6]; PAβN, text names E. coli only): No effect
2 | 1 | 32 (≈ 100 µM) | > 32 | 4 (≈ 12.5 µM) | 8 (≈ 25.1 µM) | 1–2 fold | 0.125 (≈ 0.391 µM) | 0.125 (≈ 0.391 µM) | > 32 | > 32 | > 32 | > 32 | 4–16 fold | 0.5 (≈ 1.57 µM) | 0.25 to 0.5 (≈ 0.783 to 1.57 µM) | 0.5 (≈ 1.57 µM) | 2 to 4 (≈ 6.26 to 12.5 µM) | 2 (≈ 6.26 µM) | 4 (≈ 12.5 µM) | CCn1cc(C(=O)O)c(=O)c2cc(F)c(N3CCNCC3)cc21 [Compound 6b, norfloxacin, reference compound] | potentiation of MIC by PMBN ([8]; MIC –PMBN vs +PMBN): 2 fold
3 | – | 32 (≈ 83.9 µM) | > 32 | 4 (≈ 10.5 µM) | 4 to 8 (≈ 10.5 to 21 µM) | – | 0.5 (≈ 1.31 µM) | 1 to 2 (≈ 2.62 to 5.24 µM) | > 32 | > 32 | > 32 | > 32 | – | 1 (≈ 2.62 µM) | 1 (≈ 2.62 µM) | 0.5 (≈ 1.31 µM) | 8 (≈ 21 µM) | 4 (≈ 10.5 µM) | 16 (≈ 41.9 µM) | O=C(O)c1cn(Cc2ccccc2)c2cc(N3CCNCC3)c(F)cc2c1=O [Compound 6c] | antibacterial activity [9]: limited activity
